Measurements taken from ChEMBL document CHEMBL1128195, “A novel class of cyclic beta-dicarbonyl leaving groups and their use in the design of benzisothiazolone human leukocyte elastase inhibitors” (J Med Chem, 1995).

Columns and labels:
in vitro [1] = conditions: human, blood
in vitro [2] = conditions: human, liver
Description: Half life in human liver at 37 degree C

| half-life (in vitro [1]) | half-life (in vitro [2]) | Compound |
| --- | --- | --- |
| < 0.25 h | – | COc1cc(C(C)C)c2c(c1)S(=O)(=O)N(COC1=CC(=O)c3ccccc31)C2=O |
| 1.78 h | 1.7 h | COc1cc(C(C)C)c2c(c1)S(=O)(=O)N(COc1cc(=O)n3ccccc3n1)C2=O |
| < 0.25 h | – | COc1cc(C(C)C)c2c(c1)S(=O)(=O)N(COC1=C(C)C(=O)CC1)C2=O |
| 0.967 h | 1.25 h | COc1cc(C(C)C)c2c(c1)S(=O)(=O)N(COC1=C(Cc3ccccc3)C(=O)OC1)C2=O |
| 5.83 h | 1.72 h | COc1cc(C(C)C)c2c(c1)S(=O)(=O)N(COc1nc3ccccn3c(=O)c1C)C2=O |
| 2.07 h | – | COc1cc(C(C)C)c2c(c1)S(=O)(=O)N(COc1nc3ccccn3c(=O)c1Br)C2=O |
| < 0.25 h | – | O=C1c2ccccc2S(=O)(=O)N1COc1nc2ccccn2c(=O)c1Cl |
| 0.233 h | – | COc1cc(C(C)C)c2c(c1)S(=O)(=O)N(COC1=CC(=O)N(Cc3ccccc3)C1)C2=O |
| 3.83 h | – | CCC(C)c1cccc2c1C(=O)N(COc1nc3ccccn3c(=O)c1Cl)S2(=O)=O (configuration not stated) |
| 2.82 h | 0.583 h | COc1cc(C(C)C)c2c(c1)S(=O)(=O)N(COC1=C(Cc3ccccc3)C(=O)OC1C)C2=O (configuration not stated) |
| 0.483 h | – | COc1cc(C(C)C)c2c(c1)S(=O)(=O)N(COC1=C(c3ccccc3)C(=O)OC1)C2=O |
| 0.267 h | – | COc1cc(C(C)C)c2c(c1)S(=O)(=O)N(COC1=C(C)C(=O)CCC1)C2=O |
| < 0.25 h | – | COc1cc(C(C)C)c2c(c1)S(=O)(=O)N(COC1=C(Cl)C(=O)OC1)C2=O |
| 2.67 h | – | COc1cc(C(C)C)c2c(c1)S(=O)(=O)N(COc1nc3ccccn3c(=O)c1Cl)C2=O |
| 0.917 h | – | COc1cc(C(C)C)c2c(c1)S(=O)(=O)N(COC1=C(Cc3ccccc3)C(=O)CC1)C2=O |
| < 0.25 h | – | COc1cc(C(C)C)c2c(c1)S(=O)(=O)N(COC1=CC(=O)OC1C)C2=O (configuration not stated) |
| 6 h | – | COc1cc(C(C)C)c2c(c1)S(=O)(=O)N(COc1cc(=O)oc3ccccc13)C2=O |
| < 0.25 h | – | COc1cc(C(C)C)c2c(c1)S(=O)(=O)N(COC1=CC(=O)OC1)C2=O |
| 0.85 h | – | COc1cc(C(C)C)c2c(c1)S(=O)(=O)N(COc1cc(=O)n3c(n1)CCCC3)C2=O |
| 0.833 h | – | CC(C)c1cccc2c1C(=O)N(COc1nc3ccccn3c(=O)c1Cl)S2(=O)=O |
| < 0.25 h | – | COc1cc(C(C)C)c2c(c1)S(=O)(=O)N(COc1cc(C)oc(=O)c1Cl)C2=O |
| < 0.25 h | – | COc1cc(C(C)C)c2c(c1)S(=O)(=O)N(COc1cc(C)oc(=O)c1C(=O)c1ccccc1)C2=O |
| 2.33 h | 1.22 h | COc1cc(C(C)C)c2c(c1)S(=O)(=O)N(COC(=O)c1c(Cl)cccc1Cl)C2=O |
| < 0.25 h | – | COc1cc(C(C)C)c2c(c1)S(=O)(=O)N(COC1=CC(=O)C1)C2=O |
| < 0.25 h | – | COc1cc(C(C)C)c2c(c1)S(=O)(=O)N(COc1cc(C)oc(=O)c1)C2=O |
| 2.57 h | 1.37 h | COc1cc(C(C)C)c2c(c1)S(=O)(=O)N(COC1=C(c3ccccc3)C(=O)OC1C)C2=O (configuration not stated) |
